# T1: protein encoded in the VRER gene (Vigna radiata, UniProt Q9SQK0)
# T1 sequence (Q9SQK0 1-325): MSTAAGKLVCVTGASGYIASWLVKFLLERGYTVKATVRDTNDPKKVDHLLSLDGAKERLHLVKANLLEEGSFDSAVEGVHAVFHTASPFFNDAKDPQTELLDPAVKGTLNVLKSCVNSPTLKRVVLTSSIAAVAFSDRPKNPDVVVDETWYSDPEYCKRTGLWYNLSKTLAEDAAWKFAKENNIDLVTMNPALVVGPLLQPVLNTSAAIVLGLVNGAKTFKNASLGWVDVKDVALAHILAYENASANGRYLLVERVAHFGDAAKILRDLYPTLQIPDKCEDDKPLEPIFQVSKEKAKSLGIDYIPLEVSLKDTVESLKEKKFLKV
# B1: protein corresponding to the VRER gene: polypeptide of 325 amino acids from Vigna radiata with eutypine reductase activity, SEQ ID NO. 4 (protein)
# chain: T1 sequence (Q9SQK0 1-325)
# Key:
# [1] = biological target: T1, protein encoded in the VRER gene; experiment: Biochemical characteristics of the protein encoded in the VRER gene (substrate reduction with NADPH); settings: in the presence of NADPH
# Description: The protein encoded in the VRER gene was characterized biochemically. […] It was also investigated whether this protein was capable of reducing other substrates.
# [2] = tested on: eutypine reductase; experiment: Conversion of eutypine to eutypinol: effect of reductase inhibitors; type: biochemical, grapevine
# Description: The conversion of eutypine to eutypinol is catalyzed by a non-membrane enzyme, which specifically requires NADPH as co-factor. Its activity is reduced by reductase inhibitors such as disulfiram and parahydroxymercuribenzoic acid, confirming its membership of this group of enzymes. It has been called “eutypine reductase”. The reaction scheme is shown below. [drawing 2]
# [3] = tested on: protoplasts obtained from leaves of vitroplants of Vitis vinifera cv. Cabernet Sauvignon; experiment: Viability of leaf protoplasts cultured with eutypine or eutypinol; type: cell-based; settings: for Viability after 48 hours: protoplasts 4.5×10^5/ml
# Description: (§1) The protoplasts (4.5×10^5/ml) are cultured in the presence of eutypine or eutypinol for 48 hours.
# [4] = tested on: untransformed calluses (GWT); experiment: Biotest II: growth of calluses on media containing eutypine; settings: 500 μM of eutypine; wildtype calluses
# [5] = Viability of leaf protoplasts cultured with eutypine or eutypinol; type: cell-based, Vitis vinifera; settings: Vitis vinifera, protoplasts 4.5×10^5/ml, 48 hours, read-out: Viability after 48 hours
# Description: as §1
# [6] = tested on: grapevine vitroplants; experiment: Application of eutypine to grapevine vitroplants; type: in vivo
# [7] = tested on: protoplasts obtained from grapevine leaves; experiment: Tolerance of leaf protoplasts to eutypine; type: cell-based; settings: Cabernet Sauvignon protoplasts compared with Merlot protoplasts
# Description: the eutypine applied to simplified biological systems causes more serious symptoms in the varieties sensitive to eutypa dieback than in varieties of grapevines tolerant to this disease.
# [8] = tested on: protoplasts of Cabernet Sauvignon; experiment: Degradation of eutypine by protoplasts (detoxification activity); type: in vitro ADME, Vitis vinifera; settings: Cabernet Sauvignon (sensitive); eutypine 100 μM, 1 hour, 30° C.
# Description: (§2) The protoplasts (10^6/ml) obtained from leaves of vitroplants are incubated for 1 hour at 30° C. in the presence of eutypine (100 μM; 0.4 kBq). Then, the phenylacetylenic compounds are extracted, separated by thin layer chromatography and the metabolic rate of eutypine is calculated after determination of the radioactivity associated with eutypine and eutypinol.
# [9] = tested on: protoplasts of Ugni blanc; experiment: as above; type: in vitro ADME, Vitis vinifera; settings: Ugni blanc (very sensitive); eutypine 100 μM, 1 hour, 30° C.
# Description: as §2
# [10] = tested on: protoplasts of Merlot; experiment: as above; type: in vitro ADME, Vitis vinifera; settings: Merlot (tolerant); eutypine 100 μM, 1 hour, 30° C.
# Description: as §2
# [11] = tested on: transformed (UBT) calluses of Vitis vinifera cv Ugni blanc; experiment: Biotest II: development of calluses in the presence of eutypine; type: cell-based
# Description: (§3) The transformation experiments were also performed on calluses of Vitis vinifera cv Ugni blanc by making use of the same experimental protocol as that used for the transformation of the calluses of Vitis vinifera cv. Gamay.
# (§4) The analysis of the behaviour of the calluses of Vitis vinifera cv Ugni blanc towards eutypine was performed by using biotest II.
# [12] = tested on: untransformed (UBWT) calluses of Vitis vinifera cv Ugni blanc; experiment: as above; type: cell-based
# Description: as §3, §4
# [13] = tested on: mitochondria; experiment: Decoupling of oxidative phosphorylation in mitochondria; type: biochemical
# Description: The mode of action of eutypine was confirmed by investigating its effects on the functioning of mitochondria. Eutypine acts as a decoupling agent of oxidative phosphorylation. The complete decoupling of the mitochondria is attained at concentrations of eutypine close to 150 μM.
# [14] = tested on: grapevine cells; experiment: Penetration of eutypine into grapevine cells; type: cell-based
# Description: The investigation of the mode of action of eutypine in the grapevine cells was made possible owing to the availability of eutypine in the unlabelled form and in the radioactive form, labelled with carbon 14.
# This toxic molecule then accumulates in the cytoplasm by an acid trapping mechanism and, owing to its lipophilic character, inserts itself into the lipids of the membranes.
# [15] = tested on: grapevine cells; experiment: Consumption of oxygen of grapevine cells; type: cell-based; settings: activation at low dose
# Description: Eutypine affects the functioning of the membrane systems of the grapevine cells. It causes the acidification of the cytoplasm, the reduction of leucine transport, the activation at low dose of the consumption of oxygen and its inhibition above 160 μM, and a diminution of the energy load of the cells.
# [16] = tested on: transformed (GA, GB, GC, GD) grapevine cells; experiment: Biotest I: mortality of grapevine cells in suspension with eutypine (erythrosine); type: cell-based, Vitis vinifera cv Gamay
# Description: (§5) In the biotest I, the percentage of dead cells was estimated by means of the erythrosine reagent. The concentration of eutypine inducing a percentage of dead cells of 50% is determined in the wildtype strain and in the transformed varieties.
# [17] = tested on: untransformed (GWT) grapevine cells; experiment: as above; type: cell-based, Vitis vinifera cv Gamay; settings: GWT wildtype
# Description: as §5
# [18] = tested on: transformed calluses (GA); experiment: Biotest II: growth of calluses on media containing eutypine; settings: 500 μM of eutypine; GA variety
# [19] = Reduction of eutypine by lysate of E. coli overexpressing the VRER protein; type: biochemical, Vigna radiata; settings: NADPH, radioactive eutypine, thin layer chromatography
# Description: For that, the complementary DNA of the VRER gene was cloned in an expression vector, then transferred into the bacteria. The lysate of these bacteria which overexpress the protein corresponding to the VRER gene uses the co-factor NADPH to reduce eutypine.
molecule,measurement,setting,value
2-fluoraldehyde,reduction by the ER protein,[1],reduced
CCCCCC=O [hexanal],reduction by the ER protein,[1],reduced
O=C(O)c1cc[c]([Hg][OH])cc1 [parahydroxymercuribenzoic acid],activity of eutypine reductase in the presence of reductase inhibitor,[2],reduced
O=Cc1ccncc1 [4-pyridine carbaldehyde],reduction by the ER protein,[1],reduced
CCCCCCCCCC=O [decylaldehyde],reduction by the ER protein,[1],reduced
"C=C(C)C#Cc1cc(CO)ccc1O [Eutypinol, 4-hydroxy-3-(3-methylbut-3-en-1-ynyl) benzylic alcohol]",Viability after 48 hours,[3]; 200 μM,86
same,Viability after 48 hours,[3]; 500 μM,83
same,toxicity to the grapevine,[3]; even at high concentrations,does not show toxicity
O=Cc1ccccc1 [benzaldehyde],reduction by the ER protein,[1],reduced
"C=C(C)C#Cc1cc(C=O)ccc1O [Eutypine, 4-hydroxy-3-(3-methylbut-3-en-1-ynyl) benzaldehyde]",development of calluses,[4],do not develop
same,"viability at 48 h, 100 µM",[5]; 100 μM,67%
same,"viability at 48 h, 200 µM",[5]; 200 μM,0%
same,symptoms of the disease,[6]; applied to grapevine vitroplants,reproduces certain symptoms of the disease
same,ultrastructural alterations in the leaves,[6]; leaves of vitroplants,induces ultrastructural alterations
same,tolerance of protoplasts to eutypine,[7],lower tolerance
same,Detoxification activity,[8],10.1 pmol/min/10^5 cells
same,Detoxification activity,[9],7.9 pmol/min/10^5 cells
same,Detoxification activity,[10],13.6 pmol/min/10^5 cells
same,Mean mass of a callus,"[11]; 500 μM of eutypine, UBT",150 mg
same,growth of the calluses,"[11]; 500 μM, transformed UB variety",practically unaffected
same,Mean mass of a callus,"[12]; 500 μM of eutypine, UBWT",25 mg
same,development of calluses,"[12]; 500 μM, wildtype variety",necrose rapidly and do not develop
same,concentration for complete decoupling of the mitochondria,[13],~150 µM
same,penetration into the grapevine cells,[14],passive diffusion
same,concentration for inhibition of the consumption of oxygen,[15],above 160 μM
same,LD50 (eutypine concentration causing the mortality of 50%),[16]; GA transformed cells in suspension,255 µM
same,LD50 (eutypine concentration causing the mortality of 50%),[16]; GB transformed cells in suspension,250 µM
same,LD50 (eutypine concentration causing the mortality of 50%),[16]; GC transformed cells in suspension,230 µM
same,LD50 (eutypine concentration causing the mortality of 50%),[16]; GD transformed cells in suspension,225 µM
same,LD50 (eutypine concentration causing the mortality of 50%),[17],100 µM
same,development of calluses,[18],does not exhibit necroses
B1,eutypine reductase activity,[19],exhibits a “eutypine reductase” activity in vitro
